“Also recorded” adds a separate entry of the source. Where a SMILES comes first, the peptide text is derived from it. Where no end group is shown, it is not given here.

Data set [1] deals with T1, recombinant human dipeptidyl peptidase-IV (DPP4) (Homo sapiens, UniProt P27487).
T1 construct: purchased Sigma–Aldrich Co
The data set is described as follows: DPP4 inhibitory activity and IC50 (GP-pNA substrate, absorbance of pNA at 405 nm). The following applies: for IC50: synthetic peptides; for inhibition at 2000 µM / DPP4 inhibitory activity: synthetic peptides at 2 mM. The class given is biochemical. The procedure:
(§1) The DPP4 inhibitory activity was studied following Hung et al.. All the reagents and samples were dissolved in 0.1 M Tris-HCl buffer, pH 8. First, 25 µL of 1.6 mM GP-pNA was premixed with 25 µL of sample and incubated at 37 °C for 10 min. Then, 50 µL of 0.5 U/µL DPP4 was added. The reaction was set at 37 °C for one hour. 100 µL of 1 M sodium acetate at pH 4 was added to stop the enzymatic reaction. Using a PowerWave XS (Biotek®, Winooski, VT, USA) 96-well microplate reader, the absorbance of pNA, which was generated by the DPP4 and GP-pNA reactions, was measured at 405 nm. DPP4 inhibitory activity was examined by the following formula:(1) DPP4 inhibitory activity%=pNA(no inhibitor)−pNA(inhibitor)/pNA(no inhibitor)×100%,
The absorbances of pNA obtained in the presence and absence of an inhibitor were referred to as pNA (inhibitor) and pNA (no inhibitor), respectively. The DPP4 half-maximal inhibitory concentration (DPP4 IC50) was determined by plotting at least five logarithmic concentrations of the inhibitor versus their DPP4 inhibition (%) to construct a nonlinear regression.

The test system of data set [2] is pepsin, trypsin and α-chymotrypsin. Nature of the data set: Stability against simulated gastrointestinal (SGI) digestion (pepsin, then trypsin and α-chymotrypsin; LC-MS). The format is in vitro ADME. The following applies: pepsin ninety minutes, then α-chymotrypsin and trypsin three hours, 37 °C. The procedure:
The peptide stability against SGI digestion was investigated by following the research of Gu and Wu, with some modifications. All the SGI enzyme-to-peptide ratios were fixed at 2%. The synthesized peptides MW4 and VF7 were dissolved in 35 mM NaCl buffer (pH 2.0) and digested by pepsin at 37 °C for ninety minutes, respectively. Next, the pH was adjusted to 7–8. Half of each sample was boiled for 15 min to terminate pepsin digestion. The other half of the sample was treated with trypsin and α-chymotrypsin and the reaction was continued at 37 °C for three hours, followed by boiling for 15 min to stop the reaction. An LC-MS analysis was employed to assess the resistance of peptides to SGI digestion.

The target of data set [3] is T1, recombinant human dipeptidyl peptidase-IV (DPP4). Nature of the data set: Peptide inhibition mechanism toward DPP4 (Lineweaver–Burk plot). The format is biochemical. The following applies: GP-pNA 0.8, 1.6, 3.2 mM. The procedure:
as §1
The inhibition mechanism of peptides on DPP4 and ACE was studied using the inhibitory assays described previously. The peptide inhibition mechanism toward DPP4 was identified by generating a Lineweaver–Burk plot using the production rates of pNA in the presence and absence of the inhibitor at GP-pNA concentrations of 0.8, 1.6, and 3.2 mM. Meanwhile, the HA production rate was determined with and without the inhibitor using HHL concentrations of 0.625, 1.25, and 5 mM to assess the peptide inhibition mechanism against ACE through a Lineweaver–Burk plot.

In data set [4] the target is T2, angiotensin-I-converting enzyme (ACE) from rabbit lungs (Oryctolagus cuniculus, UniProt P12822).
T2 construct: angiotensin-I-converting enzyme (ACE) from rabbit lungs; purchased Sigma–Aldrich Co; host or cells: rabbit lung tissue
T2 sequence (P12822 34-1310): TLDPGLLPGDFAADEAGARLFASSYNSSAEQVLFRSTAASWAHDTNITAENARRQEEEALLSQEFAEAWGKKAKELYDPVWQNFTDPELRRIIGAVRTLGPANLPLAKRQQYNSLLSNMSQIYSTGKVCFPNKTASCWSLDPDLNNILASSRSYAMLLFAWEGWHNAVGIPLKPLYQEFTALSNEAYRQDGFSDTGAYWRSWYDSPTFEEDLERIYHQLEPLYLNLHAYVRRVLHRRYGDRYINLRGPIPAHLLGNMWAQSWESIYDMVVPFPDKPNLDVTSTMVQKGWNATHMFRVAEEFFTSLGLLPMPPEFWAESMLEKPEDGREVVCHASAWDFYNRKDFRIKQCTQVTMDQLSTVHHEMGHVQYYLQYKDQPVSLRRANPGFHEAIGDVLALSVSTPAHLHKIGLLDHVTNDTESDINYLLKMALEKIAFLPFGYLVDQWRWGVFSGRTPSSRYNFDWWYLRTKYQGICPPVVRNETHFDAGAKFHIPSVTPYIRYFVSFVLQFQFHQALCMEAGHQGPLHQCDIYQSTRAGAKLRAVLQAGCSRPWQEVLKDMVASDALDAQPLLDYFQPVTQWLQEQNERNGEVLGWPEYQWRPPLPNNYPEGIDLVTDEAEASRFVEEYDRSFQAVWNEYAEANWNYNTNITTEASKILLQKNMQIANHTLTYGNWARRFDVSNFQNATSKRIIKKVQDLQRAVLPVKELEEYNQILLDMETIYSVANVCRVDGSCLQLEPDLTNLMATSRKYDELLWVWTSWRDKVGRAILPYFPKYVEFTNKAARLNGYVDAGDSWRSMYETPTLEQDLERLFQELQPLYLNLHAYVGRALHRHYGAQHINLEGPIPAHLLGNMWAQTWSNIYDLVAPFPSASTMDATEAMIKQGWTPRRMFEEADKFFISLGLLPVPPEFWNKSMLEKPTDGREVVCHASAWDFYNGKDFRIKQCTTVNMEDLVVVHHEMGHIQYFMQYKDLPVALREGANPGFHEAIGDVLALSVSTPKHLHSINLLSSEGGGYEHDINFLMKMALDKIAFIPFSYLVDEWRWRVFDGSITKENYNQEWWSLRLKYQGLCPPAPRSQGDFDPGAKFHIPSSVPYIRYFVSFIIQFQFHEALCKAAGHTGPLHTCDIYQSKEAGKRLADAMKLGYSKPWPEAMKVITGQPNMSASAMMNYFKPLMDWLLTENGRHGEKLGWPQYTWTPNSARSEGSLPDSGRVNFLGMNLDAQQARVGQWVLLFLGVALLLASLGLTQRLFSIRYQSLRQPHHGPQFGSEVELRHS
The data set is described as follows: ACE inhibitory activity and IC50 (HHL substrate, HA by RP-HPLC). The class given is biochemical. The procedure: (§2) The ACE inhibitory activity was investigated following Cushman and Cheung, with some modifications. First, 30 µL of 2.5 mM HHL was premixed with 10 µL of the sample at 37 °C for 5 min. Then, 20 µL of 0.05 mU/µL ACE was added. The reaction was maintained at 37 °C for one hour. Afterward, 60 µL of 1 N HCl was added to stop the reaction, and 10 µL of 0.2 µg/µL ferulic acid was used as an internal standard. All the reagents and samples were dissolved in pH 8.3 ACE buffer (760 mM boric acid, 300 mM NaCl, and 200 mM NaOH). Using UV-Vis RP-HPLC (Hitachi High-Tech Co., Tokyo, Japan), the area of HA, as the product of ACE and HHL reactions, was measured at 228 nm. An elution with 23% ACN and 0.1% TFA was used at a flow rate of 1 mL/min for 15 min to separate the analytes. ACE inhibitory activity was determined by the following formula:(2) ACE inhibitory activity%=HA(no inhibitor)−HA(inhibitor)/HA(no inhibitor)×100%
The areas of HA acquired in the presence and absence of an inhibitor were referred to as HA (inhibitor) and HA (no inhibitor), respectively. The ACE half-maximal inhibitory concentration (ACE IC50) was performed by plotting at least five logarithmic concentrations of the inhibitor versus their ACE inhibition (%) to construct a nonlinear regression.

Data set [5] concerns the target T2, angiotensin-I-converting enzyme (ACE) from rabbit lungs. Nature of the data set: Peptide inhibition mechanism toward ACE (Lineweaver–Burk plot). The following applies: HHL 0.625, 1.25, 5 mM. The class given is biochemical. The procedure: as §2
The inhibition mechanism of peptides on DPP4 and ACE was studied using the inhibitory assays described previously. […] Meanwhile, the HA production rate was determined with and without the inhibitor using HHL concentrations of 0.625, 1.25, and 5 mM to assess the peptide inhibition mechanism against ACE through a Lineweaver–Burk plot.

The test system of a further data set is DPP4. The following applies: cited from earlier work.
A further data set has as its system ACE. The following applies: cited from earlier work.

T1 sequence (P27487 whole entry): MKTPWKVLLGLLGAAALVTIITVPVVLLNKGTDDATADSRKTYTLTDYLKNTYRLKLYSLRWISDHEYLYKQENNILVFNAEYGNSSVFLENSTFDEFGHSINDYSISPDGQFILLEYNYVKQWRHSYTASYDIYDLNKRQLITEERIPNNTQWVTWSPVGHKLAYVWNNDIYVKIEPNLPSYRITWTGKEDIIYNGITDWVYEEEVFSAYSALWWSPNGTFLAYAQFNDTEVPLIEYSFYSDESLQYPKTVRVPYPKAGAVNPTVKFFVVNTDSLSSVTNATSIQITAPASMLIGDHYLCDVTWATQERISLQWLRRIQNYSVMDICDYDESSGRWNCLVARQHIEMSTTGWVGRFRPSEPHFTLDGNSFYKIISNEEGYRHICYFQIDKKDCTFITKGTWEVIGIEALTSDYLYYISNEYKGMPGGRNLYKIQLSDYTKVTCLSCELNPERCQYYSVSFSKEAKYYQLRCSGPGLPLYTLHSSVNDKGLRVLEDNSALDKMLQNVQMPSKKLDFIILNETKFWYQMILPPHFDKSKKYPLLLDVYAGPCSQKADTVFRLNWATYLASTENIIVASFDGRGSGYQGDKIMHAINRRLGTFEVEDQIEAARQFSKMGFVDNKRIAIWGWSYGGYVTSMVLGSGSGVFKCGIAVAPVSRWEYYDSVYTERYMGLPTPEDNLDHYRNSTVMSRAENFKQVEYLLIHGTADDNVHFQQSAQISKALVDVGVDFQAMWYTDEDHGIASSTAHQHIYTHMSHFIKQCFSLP

By IC50 is commonly meant the midpoint of a concentration-inhibition curve. In general, inhibition refers to the share of the control response that was lost under treatment. Consider `CC(C)C[C@H](N)C(=O)N[C@@H](Cc1ccccc1)C(=O)N[C@@H](Cc1ccc(O)cc1)C(=O)O` [LY3, LFY] (H-Leu-Phe-Tyr-OH; N-terminus assumed), for which, in data set [1], the IC50 was determined as 2100 ± 55.2 µM and the inhibition at 2000 µM came to 49%.
Turning to `CSCC[C@H](N)C(=O)N1CCC[C@H]1C(=O)N[C@@H](Cc1c[nH]cn1)C(=O)N[C@@H](Cc1c[nH]c2ccccc12)C(=O)O` [MW4, MPHW] (H-MPHW-OH; N-terminus assumed), the “Stability during simulated gastrointestinal digestion” value in data set [2] was “remained stable; also recorded: neither MW4 nor VF7 was hydrolyzed”. In addition, the DPP4 inhibition mechanism entry in data set [3] is recorded as “competitive inhibitors”. The IC50 in data set [4] is 172 ± 10.6 µM; in data set [1], 128 ± 1.3 µM. Also, in data set [5], the ACE inhibition mechanism result is given as “competitive inhibitor”. For the same molecule, the inhibition at 2000 µM in data set [1] was found to be 97%.
For APLVSW, the IC50 in the data set on DPP4 is 145 µM; in the data set on ACE, 9.6 µM.
For ELF [EF3], the DPP4 inhibitory activity in data set [1] is reported as 4%.
Take HNLPVL [HL6]: the DPP4 inhibitory activity in data set [1] was found to be 12%.
Take LFPNAGY-OH [LY7, LFPNAGY]: in data set [1], the IC50 stood at 913.6 ± 6.7 µM and the inhibition at 2000 µM is 71%.
Turning to LPSW, the IC50 in the data set with DPP4 is 270 µM; with ACE, 21 µM.
On to MLPQNF-OH [MF6, MLPQNF], for which, in data set [1], the IC50 was determined as 957 ± 39.2 µM and the inhibition at 2000 µM worked out at 68%.
As to PAGPF, in the data set on DPP4, the IC50 was 136 µM.
For the molecule PLW [PW3], in data set [1], the DPP4 inhibitory activity was determined as 6%.
Consider RATLPF-OH [RF6, RATLPF], for which, in data set [1], the IC50 amounted to 1670 ± 45.4 µM and the inhibition at 2000 µM was 56%.
Take VPSGAPF-OH [VF7, VPSGAPF]: in data set [2], the “Stability during simulated gastrointestinal digestion” value is “remained stable; also recorded: neither MW4 nor VF7 was hydrolyzed”. Moreover, the DPP4 inhibition mechanism entry in data set [3] is “competitive inhibitors”. For the same molecule, the inhibition at 200 µM in data set [4] (200 µM) worked out at 19%. In addition, in data set [1], the IC50 was 151 ± 3.4 µM and the inhibition at 2000 µM is 90%.
In the case of “WALPTQSW [peptide derived from Inca nut seed GP hydrolysate]”, the figures for the IC50 in the data set on DPP4 and in the data set with ACE were 132 µM and 4.7 µM, respectively.

The values above are taken from publication PMC11591893, “Exploring the Antidiabetic and Antihypertensive Potential of Peptides Derived from Bitter Melon Seed Hydrolysate” (Biomedicines, 2024).
